The text below walks through data of patent publication US20250326769A1, “HETEROAROMATIC MACROCYCLIC ETHER CHEMOTHERAPEUTIC AGENTS” (Nuvalent, Inc., priority 2022, published 2025).

One assay concerns the target TRKB-wt (Homo sapiens (Human), UniProt Q16620). Nature of the assay: Biochemical kinase assay, TRKB-wt. Conditions: apparent inhibitory constant, kinase domain, Morrison equation; read-out: TRKB-wt Ki^app. The procedure:
(§1) First, 250 nL of compound dissolved in DMSO (100-fold of the desired concentration) was dispensed into a 384-well plate. A 12.5 μL substrate solution containing ATP (2 mM) and fluorogenic phosphorylation substrate AQT0101 ([…] for ALK and ROS, AssayQuant) or AQT0104 (26 μM for TRKB, AssayQuant) in buffer (50 mM HEPES pH 7.5, […], 0.5 mM EGTA, 10 mM MgCl2) was added and mixed thoroughly. Then, a 12.5 μL kinase solution containing ALK (1.5 nM, Carna, 08-518), ALK I1171N/D1203N (4 nM, SignalChem, custom-made), ROS1 (0.6 nM, Carma, 08-163), ROS1-G2032R (0.5 nM, SignalChem, R14-121BG), or TRKB-wt (1.5 nM, SignalChem, N17-11G) kinase domains in buffer ([…] pH 7.5, 0.01% Brij-[…], 0.4 mg/mL BSA, 0.5 mM EGTA, and 10 mM MgCl2) was added and mixed thoroughly. The plate was sealed and read by SpectraMax Paradigm at λ=485 nm every 2 minutes for 120 minutes at 30° C. Initial rates of reaction (v) were calculated from the change in fluorescence intensity over time during the initial, linear portion of the reaction. Finally, apparent inhibitory constants (Ki^app) were determined from regression of v and I (inhibitor concentration) to Morrison Equation (E=enzyme concentration): […]
(§2) Compound potency can be interpreted by binning Ki^app values against the targets: bin A for high potency, Ki^app<50 nM; bin B for medium potency, 50 nM≤Ki^app<500 nM; and bin C for low potency, Ki^app≥500 nM. […] “nd” means not determined.

Assay [1] deals with Ba/F3 EML4-ALK v1 I1171N/D1203N (Homo sapiens (Human), UniProt Q9HC35+Q9UM73, D1203N/I1171N). Nature of the assay: Ba/F3 cell proliferation assay, EML4-ALK v1 I1171N/D1203N. The class given is cell-based. Particulars: for IC50: Ba/F3 stable cells, 72 hours, CellTiter-Glo; for Selectivity for Ba/F3 EML4-ALK v1 I1171N-D1203N IC50 over Ba/F3 ETV6-TRKB IC50 / ETV6-TRKB / EML4-ALK v1 I1171N/D1203N: ratio of Ba/F3 IC50 values, TRKB selectivity; for Selectivity for Ba/F3 EML4-ALK v1 I1171N-D1203N IC50 over Ba/F3 ETV6-TRKB IC50: Table 6 bins. The procedure, abridged:
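Viability read by CellTiter-Glo luminescence after 72 h exposure to a 3-fold compound dilution series, with IC50 from four-parameter logistic regression. Cells were Ba/F3 rendered IL-3-independent through retroviral expression of EML4-ALK v1 I1171N/D1203N, puromycin-selected.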

Another assay deals with Ba/F3 ETV6-TRKB (Homo sapiens, UniProt Q16620). Nature of the assay: Ba/F3 cell proliferation assay, ETV6-TRKB. Conditions: Ba/F3 stable cells, 72 hours, CellTiter-Glo; read-out: ETV6-TRKB IC50. The class given is cell-based. A digest of the protocol: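 Growth inhibition after 72 h compound exposure (3-fold series) was measured by CellTiter-Glo in IL-3-independent Ba/F3 cells stably expressing ETV6-TRKB. A four-parameter logistic fit of percent inhibition versus concentration gave IC50.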
A general note: ATP-based viability assays read luminescence as a measure of living cells.

The next assay addresses Ba/F3 EML4-ALK v1 I1171N (Homo sapiens (Human), UniProt Q9HC35+Q9UM73, I1171N). Nature of the assay: Ba/F3 cell proliferation assay, EML4-ALK v1 I1171N. It is filed as cell-based. Particulars: for IC50: Ba/F3 stable cells, 72 hours, CellTiter-Glo; for ETV6-TRKB / EML4-ALK v1 I1171N: TRKB selectivity, ratio of Ba/F3 IC50 values. The source says:
Genes encoding EML4-ALK v1 (variant 1), EML4-ALK v1 G1202R, EML4-ALK v1 I1171IN, EML4-ALK v1 D1203N, EML4-ALK v1 I1171N/D1203N, and ETV6-TRKB were synthesized at GeneRay, cloned into the retroviral construct pMSCV-puro (Biovector), and packaged into retroviral particles. The virus was used to infect Ba/F3 cells (RIKEN) at multiplicity of infection=1 for 1 day. Infected cells were rescued in media (RPMI-1640 with 10% fetal bovine serum and 1% streptomycin and penicillin) supplemented with mouse IL-3 (10 ng/mL) for 2 days, and stable cell lines were selected by IL-3 withdrawal and puromycin (0.8 μg/mL) for 7 days. Monoclones were selected by single-cell dilution in IL-3-free medium containing puromycin (0.8 μg/mL). Transformation of desired genes was confirmed by Sanger sequencing and western blot using the following antibodies: ALK (CST #3633) and pan-TRK (Abcam #76291).
Stable cells were plated in a 384-well plate. Test compounds were then added in a 3-fold dilution series and incubated for 72 hours. CellTiter-Glo reagent (Promega) was added. Luminescence was measured on a plate reader. Half-maximal inhibitory concentration (ICso) was calculated from percent inhibition and inhibitor concentration using four-parameter logistic regression. Compound potency can be interpreted by binning IC50 values: bin A for high potency, 0.1 nM IC50<50 nM; bin B for medium potency, 50 nM<IC50<500 nM; and bin C for low potency, IC50>500 nM. […] Exemplary data is given in Table 4 (nd is not determined).
Ba/F3 proliferation is driven by the transduced oncogenes in the same way that cancer cell proliferation in humans is driven by the expression of equivalent oncogenes.
TRKB selectivity was calculated by dividing a compound's TRKB potency by its primary target potency (e.g., ETV6-TRKB IC50/EML4-ALK v1 IC50). Compound selectivity can be interpreted by binning ratio values: bin A for very high selectivity, ratio≥30-fold; bin B for high selectivity, ratio≥10-fold but<30; bin C for moderate selectivity, ratio≥1 but<10; and bin D for low selectivity, ratio<1. […] (nd=not determined).

Another assay concerns the target ALK I1171N/D1203N (Homo sapiens (Human), UniProt Q9UM73, D1203N/I1171N). In words: Biochemical kinase assay, ALK I1171N/D1203N. Particulars: apparent inhibitory constant, kinase domain, Morrison equation; read-out: ALK-I1171N-D1203N Ki^app. The procedure:
as §1, §2

TRKB-wt, sequence (Q16620 538-807): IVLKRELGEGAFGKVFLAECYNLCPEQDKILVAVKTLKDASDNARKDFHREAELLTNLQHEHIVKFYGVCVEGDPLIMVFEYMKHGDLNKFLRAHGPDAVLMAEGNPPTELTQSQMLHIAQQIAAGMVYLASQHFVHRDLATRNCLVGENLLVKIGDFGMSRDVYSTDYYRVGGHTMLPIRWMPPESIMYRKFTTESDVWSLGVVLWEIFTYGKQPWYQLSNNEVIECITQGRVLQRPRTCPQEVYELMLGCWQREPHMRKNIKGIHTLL
Ba/F3 EML4-ALK v1 I1171N, sequence (Q9UM73 other isoform, or with tags, fused parts or gaps I1171N): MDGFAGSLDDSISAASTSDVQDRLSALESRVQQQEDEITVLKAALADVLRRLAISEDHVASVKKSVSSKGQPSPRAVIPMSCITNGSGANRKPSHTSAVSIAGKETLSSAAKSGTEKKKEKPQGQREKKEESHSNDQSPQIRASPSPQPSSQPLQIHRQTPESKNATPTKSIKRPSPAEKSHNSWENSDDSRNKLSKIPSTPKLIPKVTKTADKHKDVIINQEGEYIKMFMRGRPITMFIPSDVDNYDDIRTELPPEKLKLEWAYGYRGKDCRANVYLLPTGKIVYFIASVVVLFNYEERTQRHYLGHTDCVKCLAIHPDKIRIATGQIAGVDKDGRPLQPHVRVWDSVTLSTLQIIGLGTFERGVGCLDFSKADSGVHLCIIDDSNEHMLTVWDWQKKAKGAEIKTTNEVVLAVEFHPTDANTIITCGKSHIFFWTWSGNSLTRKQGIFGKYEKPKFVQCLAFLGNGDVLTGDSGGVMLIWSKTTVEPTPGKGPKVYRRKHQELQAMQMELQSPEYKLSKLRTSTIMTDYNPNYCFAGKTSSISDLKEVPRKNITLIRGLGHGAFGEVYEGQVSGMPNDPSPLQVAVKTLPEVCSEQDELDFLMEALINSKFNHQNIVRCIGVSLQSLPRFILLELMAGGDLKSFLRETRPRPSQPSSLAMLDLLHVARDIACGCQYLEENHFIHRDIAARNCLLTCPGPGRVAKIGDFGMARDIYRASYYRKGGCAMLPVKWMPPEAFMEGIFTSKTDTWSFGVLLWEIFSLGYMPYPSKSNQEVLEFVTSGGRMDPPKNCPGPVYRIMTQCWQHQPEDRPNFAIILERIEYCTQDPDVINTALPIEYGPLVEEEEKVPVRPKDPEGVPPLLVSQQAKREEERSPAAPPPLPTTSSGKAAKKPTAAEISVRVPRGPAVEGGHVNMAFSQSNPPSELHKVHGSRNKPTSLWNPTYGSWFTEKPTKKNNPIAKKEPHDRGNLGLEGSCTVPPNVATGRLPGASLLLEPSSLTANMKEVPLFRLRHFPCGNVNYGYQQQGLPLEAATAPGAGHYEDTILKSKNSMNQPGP
Ba/F3 ETV6-TRKB, sequence (Q16620 32-822 limits assumed, change not shown): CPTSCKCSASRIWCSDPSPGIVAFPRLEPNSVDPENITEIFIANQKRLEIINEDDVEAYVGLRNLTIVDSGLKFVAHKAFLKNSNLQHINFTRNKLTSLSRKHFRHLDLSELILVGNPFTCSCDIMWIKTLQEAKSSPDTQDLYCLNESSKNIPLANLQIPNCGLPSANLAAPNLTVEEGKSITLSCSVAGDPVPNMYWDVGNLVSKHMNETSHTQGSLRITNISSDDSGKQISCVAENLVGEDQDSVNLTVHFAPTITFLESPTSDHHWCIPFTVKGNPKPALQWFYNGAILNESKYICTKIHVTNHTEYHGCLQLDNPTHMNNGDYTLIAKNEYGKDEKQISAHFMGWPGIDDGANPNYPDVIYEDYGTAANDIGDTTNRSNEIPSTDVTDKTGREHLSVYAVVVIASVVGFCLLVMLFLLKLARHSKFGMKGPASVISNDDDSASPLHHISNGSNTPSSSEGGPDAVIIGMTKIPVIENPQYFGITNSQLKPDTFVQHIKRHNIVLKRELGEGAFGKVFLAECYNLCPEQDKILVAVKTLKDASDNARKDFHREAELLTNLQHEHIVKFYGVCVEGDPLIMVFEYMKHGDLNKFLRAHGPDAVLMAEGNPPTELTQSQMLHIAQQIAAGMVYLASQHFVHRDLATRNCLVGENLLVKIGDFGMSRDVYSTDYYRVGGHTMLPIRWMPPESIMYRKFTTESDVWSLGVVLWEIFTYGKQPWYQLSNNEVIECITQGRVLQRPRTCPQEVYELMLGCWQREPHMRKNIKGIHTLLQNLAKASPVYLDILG
Ba/F3 EML4-ALK v1 I1171N/D1203N, sequence (Q9UM73 other isoform, or with tags, fused parts or gaps I1171N/D1203N): as the sequence (Q9UM73 other isoform, or with tags, fused parts or gaps I1171N) above, with D642N counted along it
ALK I1171N/D1203N, sequence (Q9UM73 1116-1392 I1171N/D1203N): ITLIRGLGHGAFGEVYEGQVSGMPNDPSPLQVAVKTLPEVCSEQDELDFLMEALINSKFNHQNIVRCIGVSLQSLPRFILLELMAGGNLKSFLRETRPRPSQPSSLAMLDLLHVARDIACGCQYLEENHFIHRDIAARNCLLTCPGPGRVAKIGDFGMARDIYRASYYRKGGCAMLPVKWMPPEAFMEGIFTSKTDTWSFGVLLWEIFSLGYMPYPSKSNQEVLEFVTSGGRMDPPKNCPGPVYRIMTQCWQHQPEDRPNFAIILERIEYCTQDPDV

Usually IC50 stands for the concentration needed to halve the response being measured. On to `C[C@H]1Oc2cc(cnc2N)-c2c(c(C(N)=O)nn2CC2CC2)Cc2cccnc2-c2ccc(F)cc21` [Example 6, (R)-23-amino-3-(cyclopropylmethyl)-17-fluoro-20-methyl-21-oxa-3,4,12,24-tetraazapentacyclo[20.3.1.0^2,^6.0^8,^13.0^14,^19]hexacosa-1(25),2(6),4,8(13),9,11,14,16, 18,22(26),23-undecaene-5-carboxamide], for which, at TRKB-wt, the Ki fell in the range of 50 to 500 nM. Further, the IC50 was 0.1 to 50 nM in assay [1] and more than 500 nM at Ba/F3 ETV6-TRKB.
As to `CCN(C)C(=O)c1nn(CC2CC2)c2c1Cc1cn(C)nc1-c1ccc(F)cc1[C@@H](C)Oc1cc-2cnc1N` [Example 38, N-ethyl-N-methyl-(R)-22-amino-3-(cyclopropylmethyl)-16-fluoro-10-methyl-19-methyl-20-oxa-3,4,10,11,23-pentaazapentacyclo[19.3.1.0^2,^6.0^8,^12.0^13,^18]pentacosa-1(24),2(6),4,8,11,13,15,17,21(25),22-decaene-5-carboxamide], at TRKB-wt, the Ki is 50 to 500 nM. Also, the IC50 against Ba/F3 EML4-ALK v1 I1171N is 0.1 to 50 nM; in assay [1] it was 0.1 to 50 nM; at Ba/F3 ETV6-TRKB, more than 500 nM.
`CCn1nc(C(=O)N(C)C)c2c1-c1cnc(N)c(c1)O[C@H](C)c1cc(F)ccc1-c1ncccc1C2=O` [Example 47, N,N-dimethyl-(R)-23-amino-3-ethyl-17-fluoro-20-methyl-7-oxo-21-oxa-3,4,12,24-tetraazapentacyclo[20.3.1.0^2,^6.0^8,^13.0^14,^19]hexacosa-1(25),2(6),4,8(13),9,11,14,16,18,22(26),23-undecaene-5-carboxamide]: the Ki on ALK I1171N/D1203N is 50 to 500 nM. Further, in assay [1], the IC50 lay within 50 to 500 nM and the “Selectivity for Ba/F3 EML4-ALK v1 I1171N-D1203N IC50 over Ba/F3 ETV6-TRKB IC50” value (“Selectivity” below) is “BB (bin BB for the selectivity with the ratio≥10-fold but<30)”. Moreover, the IC50 on Ba/F3 ETV6-TRKB was more than 500 nM.
As to `Cc1cc2n(n1)-c1c(F)cc(F)cc1[C@@H](C)Oc1cc(cnc1N)-c1c(c(C(=O)N(C)C)nn1CC1CC1)C2` [Example 44, N,N-dimethyl-(R)-22-amino-3-(cyclopropylmethyl)-14,16-difluoro-10,19-dimethyl-20-oxa-3,4,11,12,23-pentaazapentacyclo[19.3.1.0^2,^6.0^8,^12.0^13,^18]pentacosa-1(24),2(6),4,8, 10,13,15,17,21(25),22-decaene-5-carboxamide], the Ki at TRKB-wt was in the range of 50 to 500 nM. Moreover, the IC50 is 0.1 to 50 nM in assay [1] and more than 500 nM at Ba/F3 ETV6-TRKB.
For `C[C@H]1Oc2cc(cnc2N)-c2c(cnn2CC2CC2)C(=O)c2cccnc2-c2ccc(F)cc21` [Example 29, (R)-23-amino-3-(cyclopropylmethyl)-17-fluoro-20-methyl-21-oxa-3,4, 12,24-tetraazapentacyclo[20.3.1.0^2,^6.0^8,^13.0^14,^19]hexacosa-1(25),2(6),4,8(13),9,11,14,16,18,22(26),23-undecaen-7-one], on Ba/F3 EML4-ALK v1 I1171N, the IC50 is more than 500 nM and the “ETV6-TRKB / EML4-ALK v1 I1171N” value is listed as “B (bin B for high selectivity, ratio≥10-fold but<30)”. Further, in assay [1], the IC50 was more than 500 nM; the “ETV6-TRKB / EML4-ALK v1 I1171N/D1203N” value is reported as “B (bin B for high selectivity, ratio≥10-fold but<30)”; the “Selectivity” value is “BB (bin BB for the selectivity with the ratio≥10-fold but<30)”. Also, on Ba/F3 ETV6-TRKB, the IC50 was more than 500 nM.
With `CC(C)n1nc2c(c1C#N)-c1cnc(N)c(c1)O[C@H](C)c1cc(F)ccc1-c1ncccc1C2=O` [Example 51, (R)-23-amino-17-fluoro-4-isopropyl-20-methyl-7-oxo-21-oxa-4,5,12,24-tetraazapentacyclo[20.3.1.0^2,^6.0^8,^13.0^14,^19]hexacosa-1(25),2,5,8,10,12,14,16,18,22(26),23-undecaene-3-carbonitrile], on Ba/F3 EML4-ALK v1 I1171N, the IC50 fell in the range of 0.1 to 50 nM and the “ETV6-TRKB / EML4-ALK v1 I1171N” value is reported as “A (bin A for very high selectivity, ratio≥30-fold)”. Besides, in assay [1], the IC50 fell in the range of 0.1 to 50 nM; the “ETV6-TRKB / EML4-ALK v1 I1171N/D1203N” value is “A (bin A for very high selectivity, ratio≥30-fold)”; the “Selectivity” value is reported as “AA (bin AA for the selectivity with the ratio≥30-fold)”. Also, the IC50 on Ba/F3 ETV6-TRKB is 50 to 500 nM.
On to `C[C@H]1Oc2cc(cnc2N)-c2c(c(C(=O)N(C)C)nn2C2CCC2)Cc2cccnc2-c2ccc(F)cc21` [Example 48, N,N-dimethyl-(R)-23-amino-3-cyclobutyl-17-fluoro-20-methyl-21-oxa-3,4,12,24-tetraazapentacyclo[20.3.1.0^2,^6.0^8,^13.0^14,^19]hexacosa-1(25),2(6),4,8(13),9,11,14,16,18,22(26),23-undecaene-5-carboxamide], for which the IC50 against Ba/F3 EML4-ALK v1 I1171N was 0.1 to 50 nM; in assay [1], 0.1 to 50 nM; on Ba/F3 ETV6-TRKB, 50 to 500 nM.
With `C[C@H]1Oc2cc(cnc2N)-c2c(nn(C)c2CC2CC2)C(=O)c2cccnc2-c2ccc(F)cc21` [Example 53, (R)-23-amino-3-(cyclopropylmethyl)-17-fluoro-4-methyl-20-methyl-21-oxa-4,5,12,24-tetraazapentacyclo[20.3.1.0^2,^6.0^8,^13.0^14,^19]hexacosa-1(25),2,5,8,10,12,14,16,18,22(26),23-undecaen-7-one], at Ba/F3 EML4-ALK v1 I1171N, the IC50 was 50 to 500 nM and the “ETV6-TRKB / EML4-ALK v1 I1171N” value is recorded as “B (bin B for high selectivity, ratio≥10-fold but<30)”. Moreover, in assay [1], the IC50 lay within 0.1 to 50 nM and the “ETV6-TRKB / EML4-ALK v1 I1171N/D1203N” value is on record as “A (bin A for very high selectivity, ratio≥30-fold)”. The concentration for half-maximal inhibition (IC50) on Ba/F3 ETV6-TRKB was more than 500 nM.
Consider `C[C@H]1Oc2cc(cnc2N)-c2c(C3CCC3)nn(C(=O)N(C)C)c2Cc2cccnc2-c2ccc(F)cc21` [Example 57, (R)-5-(N,N-dimethylcarbamoyl)-3-cyclobutyl-17-fluoro-20-methyl-21-oxa-4,5,12,24-tetraazapentacyclo[20.3.1.0^2,^6.0^8,^13.0^14,^19]hexacosa-1(25),2(6),3,8(13),9,11,14,16,18,22(26),23-undecaen-23-ylamine], for which the IC50 on Ba/F3 EML4-ALK v1 I1171N lay in the range of 0.1 to 50 nM; in assay [1], 0.1 to 50 nM; on Ba/F3 ETV6-TRKB, 50 to 500 nM.
